Laboratory results as given in patent EP4582418A1, “CRYSTALLINE FORM OF QUINOLINE DERIVATIVE INHIBITOR, PREPARATION METHOD THEREFOR AND USE THEREOF” (TransThera Sciences (Nanjing), Inc., priority 2022, dated 2024).

Columns and labels:
[1] = Solubility in FaSSIF (pH 6.5) and FeSSIF (pH 5.0) buffer solutions; format: physicochemical
Experimental: Test substances: the crystal forms I, II, III, and IV of the methanesulfonate of the compound of formula (I).
• 1) 0.42 g of NaOH, 3.44 g of anhydrous NaH2PO4, and 6.19 g of NaCl were dissolved in about 0.9 L of pure water; • 2) the pH was adjusted to 6.5 using 1 N NaOH or 1 N HCl, and the buffer solution was supplemented to the volume of 1 L with pure water at room temperature; • 3) 2.24 g of FaSSIF powder was added to about 0.5 L of the buffer solution, and the mixture was stirred until the powder was completely dissolved; the resulting solution was supplemented to the volume of 1 L with the buffer solution at room temperature, and after being left to stand for 2 h, it was ready for use.
• 1) 4.04 g of NaOH, 8.65 g of glacial acetic acid, and 11.87 g of NaCl were dissolved in about 0.9 L of pure water; • 2) the pH was adjusted to 5.0 using 1 N NaOH or 1 N HCl, and the buffer solution was supplemented to the volume of 1 L with pure water at room temperature; • 3) 11.2 g of FeSSIF powder was added to about 0.5 L of the buffer solution, and the mixture was stirred until the powder was completely dissolved; the resulting solution was supplemented to the volume of 1 L with the buffer solution at room temperature, and after being left to stand for 2 h, it was ready for use.
An appropriate amount of each test substance was placed into separate 10 mL PE tubes, and FaSSIF (pH 6.5) buffer solution and FeSSIF (pH 5.0) buffer solution, each 10 mL, were added into the tubes, respectively. The tubes were then placed in a constant temperature water bath shaker and shaken at 37 °C for 24 h. After 24 h, samples were collected and centrifuged. The supernatants were diluted, and the solubility of the supernatants was measured.

[2] = Stability test under influencing factors (high temperature, high humidity, illumination); format: physicochemical
Experimental: Test substances: the crystal forms I, II, III, and IV of the methanesulfonate of the compound of formula (I) of the present disclosure.
Methodology: Appropriate amounts of samples of the crystal forms I, II, III, and IV of the methanesulfonate of the compound of formula (I) were separately left to stand open under the conditions of a high temperature (60 °C), a high humidity (RH 92.5%), and illumination (4500±500 Lux); sampling was performed on days 5, 10, and 30 to investigate changes in the appearance, purity, and crystal form of the samples.

H1299 cell pAXL = molecular target: T1, H1299 cell pAXL (Homo sapiens, UniProt P30530); assay: Inhibitory activity on cell pAXL (Western Blot, hGAS6 stimulation); format: cell-based; conditions: H1299 cells, 60 min compound then hGAS6 200 ng/mL 60 min
T1 construct: endogenous in cells; host or cells: H1299
T1 sequence (P30530 26-894): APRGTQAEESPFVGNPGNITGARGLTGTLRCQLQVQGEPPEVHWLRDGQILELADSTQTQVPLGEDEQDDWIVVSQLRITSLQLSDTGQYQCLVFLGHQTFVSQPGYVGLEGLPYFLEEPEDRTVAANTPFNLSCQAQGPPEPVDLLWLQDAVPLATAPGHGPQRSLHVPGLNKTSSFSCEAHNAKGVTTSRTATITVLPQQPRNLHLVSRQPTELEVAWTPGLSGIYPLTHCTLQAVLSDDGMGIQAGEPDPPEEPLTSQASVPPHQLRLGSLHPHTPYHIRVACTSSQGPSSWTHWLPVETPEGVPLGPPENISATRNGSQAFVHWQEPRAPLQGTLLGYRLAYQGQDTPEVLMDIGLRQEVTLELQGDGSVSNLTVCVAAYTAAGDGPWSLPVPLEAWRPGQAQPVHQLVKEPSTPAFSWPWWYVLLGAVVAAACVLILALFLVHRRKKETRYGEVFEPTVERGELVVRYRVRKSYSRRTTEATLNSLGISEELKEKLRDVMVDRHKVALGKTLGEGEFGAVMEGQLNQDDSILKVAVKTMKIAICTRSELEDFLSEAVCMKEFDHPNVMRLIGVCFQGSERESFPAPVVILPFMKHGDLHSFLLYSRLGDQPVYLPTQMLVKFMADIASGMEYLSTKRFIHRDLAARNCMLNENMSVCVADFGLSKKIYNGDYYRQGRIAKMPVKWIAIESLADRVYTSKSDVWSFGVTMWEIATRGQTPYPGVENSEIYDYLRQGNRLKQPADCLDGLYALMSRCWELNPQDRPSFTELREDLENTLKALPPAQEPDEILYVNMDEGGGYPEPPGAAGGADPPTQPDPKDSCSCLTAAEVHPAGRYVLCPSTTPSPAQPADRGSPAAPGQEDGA
Experimental: H1299 is a non-small cell lung cancer cell line.
Test substance: the crystal form of the methanesulfonate of the compound of formula (I) of the present disclosure, having the structure shown above.
Test instruments: protein electrophoresis apparatus (Bio Rad), membrane transfer apparatus (Bio Rad), exposure apparatus (Tanon), CO2 cell incubator (Thermo), and the like.
H1299 cells were inoculated into a 6-well plate (containing 10% FBS 1640 medium, 5 × 10^5 cells/well) and adherently cultivated at 37 °C with 5% CO2 for 18 h. The cells were starved overnight, and different concentrations of the compound were added. The final compound concentrations were 0.37 nM, 1.1 nM, 3.3 nM, 10 nM, and 30 nM, with the final DMSO content in each compound well being 1 ‰. The negative control well contained medium with 1‰ DMSO. The cells were incubated at 37 °C with 5% CO2 for 60 min, and then hGAS6 (R&D, final concentration: 200 ng/mL) was added to each well. The cells were incubated for another 60 min, and then the total protein of the cells was extracted for a Western Blot experiment to assay the inhibitory activity of the compound on cell pAXL.

[3] = Left to stand open at 60 °C for 5 days
[4] = Left to stand open at 60 °C for 10 days
[5] = Left to stand open at 60 °C for 30 days
[6] = Left to stand open at RH 92.5% for 5 days
[7] = Left to stand open at RH 92.5% for 10 days
[8] = Left to stand open at RH 92.5% for 30 days
[9] = Left to stand open under illumination (4500±500 Lux) for 5 days
[10] = Left to stand open under illumination (4500±500 Lux) for 10 days
[11] = Left to stand open under illumination (4500±500 Lux) for 30 days

COc1cc2nccc(Oc3ccc(NC(=O)c4nn(C(C)C)cc(-c5ccc(F)cc5)c4=O)nc3)c2cc1OC [Crystal form I, N-(5-((6,7-dimethoxyquinolin-4-yl)oxy)pyridin-2-yl)-5-(4-fluorophenyl)-1-isopropyl-4-oxo-1,4-dihydropyridazine-3-carboxamide]
24-hour solubility in buffer solutions with different pH values pH6.5 ([1]; FaSSIF (pH 6.5), 37 °C, shaken 24 h): 0.052 mg/mL
24-hour solubility in buffer solutions with different pH values pH5.0 ([1]; FeSSIF (pH 5.0), 37 °C, shaken 24 h): 0.29 mg/mL
solubility compared with the compound of formula (I) ([1]; test solutions at pH 5.0 and pH 6.5): significantly improved
Appearance ([2]; 0 days): White or off-white solid
Purity ([2]; 0 days): 99.69%
Appearance [2, 3]: White or off-white solid
Purity [2, 3]: 99.70%
Appearance [2, 4]: White or off-white solid
Purity [2, 4]: 99.68%
Appearance [2, 5]: White or off-white solid
Purity [2, 5]: 99.67%
Appearance [2, 6]: White or off-white solid
Purity [2, 6]: 99.69%
Appearance [2, 7]: White or off-white solid
Purity [2, 7]: 99.68%
Appearance [2, 8]: White or off-white solid
Purity [2, 8]: 99.67%
Appearance [2, 9]: White or off-white solid
Purity [2, 9]: 99.70%
Appearance [2, 10]: White or off-white solid
Purity [2, 10]: 99.69%
Appearance [2, 11]: White or off-white solid
Purity [2, 11]: 99.69%
changes in the appearance and purity ([2]; left to stand under conditions of the influencing factors for 30 days): no significant changes
IC50 (H1299 cell pAXL): < 0.37 nM
